The subject of data set [1] is SIRPα signalling induced by A549 cells. Nature of the data set: Assay B: SIRPα signalling assay using A549 cells. The data set is classed as cell-based. The note with it: Homo sapiens, 48 h compound incubation, Jurkat PathHunter SIRPαV1 reporter cells, read-out: Inhibition of SIRPα signalling induced by A549 cells: IC50. The procedure:
(§1) Two cell types are independently used: the Raji cell line (lymphoblast-like human cell line derived from B lymphocytes from a Burkitt's lymphoma patient in 1963) and A549 cells (adenocarcinomic human alveolar basal epithelial cells).
(§2) Test compounds were dissolved in 100% DMSO and serially diluted into a white 384-well microtiter cell culture plate (PerkinElmer #60076780 in case of Raji assay; PDL-coated plates Greiner #781945 in case of A549 assay). 5000 Raji cells (ATCC #CC86) or 5000 A549 cells (ATCC #CCL-185) in Assay Complete Cell Plating reagent 30 (DiscoverX 93-0563R30B) were added per well. The assay plate was incubated for 48 h at 37° C., 95% humidity and 5% CO2. 15000 reporter cells (Jurkat PathHunter SIRPαV1, DiscoverX #93-1135C19) were added to each well, and the plate was incubated for 5 h at 37° C., 95% humidity and 5% CO2. Bioassay reagent 1 of the PathHunter Bioassay detection kit (DiscoverX 93-0001) was added to each well of the plate using a multichannel pipette followed by a 15 min incubation at room temperature. Afterwards bioassay reagent 2 was added followed by […] incubation at room temperature (incubation in the dark). The analysis of the data was performed using the luminescence signal generated by beta-galactosidase in the PathHunter reporter cell line. The luminescence measurement was done using a Pherastar Multi-Mode Reader. Dose-response curves & IC50 data were calculated with 4-parameter sigmoidal dose response formula.

A short description of data set [2]: Assay C: permeability in CACO-2 cells. The data set is classed as in vitro ADME. Conditions: human, pH 7.2; for efflux ratio: Caco-2, Permeability B-A/Permeability A-B; for Papp A→B: Caco-2, apical to basolateral. Here is the method:
Caco-2 cells (1−2×10^5 cells/1 cm^2 area) are seeded on filter inserts (Costar transwell polycarbonate or PET filters, 0.4 µm pore size) and cultured (DMEM) for 10 to 25 days. Compounds are dissolved in appropriate solvent (like DMSO, 1-20 mM stock solutions). […] The transport solution (TL) is applied to the apical or basolateral donor side for measuring A-B or B-A permeability (3 filter replicates), respectively. Samples are collected at the start and end of experiment from the donor and at various time intervals for up to 2 hours also from the receiver side for concentration measurement by HPLC-MS/MS or scintillation counting. Sampled receiver volumes are replaced with fresh receiver solution. Efflux Ratio (ER)=Permeability B-A/Permeability A-B
On the technique in general: Caco-2 monolayers are a common model of the intestinal barrier.

The target of a further data set is T1, QPCT (Homo sapiens, UniProt Q16769).
T1 construct: purchased Origine (OriGene) TP700028
Nature of the data set: Assay A: biochemical QPCT activity assay (MALDI-TOF MS, CD47 peptide substrate). The note with it: 0.5 nM enzyme, 20 μM CD47 peptide substrate; read-out: Inhibition of QPCT: IC50. Here is the method:
(§3) QPCT or QPCTL dependent conversion of N-terminal glutamine to pyroglutamate of CD47 was monitored via MALDI-TOF MS. Test compounds were dissolved in 100% DMSO and serially diluted into clear 1,536-well microtiter plates. […] The plates were incubated for 10 min in a humidified incubator at 24° C. Subsequently, 2.5 μL of CD47 peptide substrate surrogate (^19[…]^33) was added to each well (final concentration: 10 μM for QPCTL/20 μM for QPCT). […] The plates were sealed with an adhesive foil, mixed for 30 s at 1,000 rpm and stored at room temperature until preparation of the MALDI target plates. MALDI target plates were prepared as described previously. […] QPCT or QPCTL activity was monitored by calculating the ratio between product and internal standard signals followed by normalization to high (100% activity) and low (0% activity) controls. Determination of compound potencies was obtained by fitting the dose-response data to a four-parameter logistical equation.

For data set [3], the system named is SIRPα signalling induced by Raji cells. Nature of the data set: Assay B: SIRPα signalling assay using Raji cells. Conditions: Homo sapiens, 48 h compound incubation, Jurkat PathHunter SIRPαV1 reporter cells, read-out: Inhibition of SIRPα signalling induced by Raji cells: IC50. The data set is classed as cell-based. The procedure:
as §1, §2

Another data set concerns the target T2, QPCTL (Homo sapiens, UniProt Q9NXS2).
T2 construct: made in house
Nature of the data set: Assay A: biochemical QPCTL activity assay (MALDI-TOF MS, CD47 peptide substrate). The note with it: 0.5 nM enzyme, 10 μM CD47 peptide substrate; read-out: Inhibition of QPCTL: IC50. Here is the method:
as §3

T1 sequence (Q16769 29-361): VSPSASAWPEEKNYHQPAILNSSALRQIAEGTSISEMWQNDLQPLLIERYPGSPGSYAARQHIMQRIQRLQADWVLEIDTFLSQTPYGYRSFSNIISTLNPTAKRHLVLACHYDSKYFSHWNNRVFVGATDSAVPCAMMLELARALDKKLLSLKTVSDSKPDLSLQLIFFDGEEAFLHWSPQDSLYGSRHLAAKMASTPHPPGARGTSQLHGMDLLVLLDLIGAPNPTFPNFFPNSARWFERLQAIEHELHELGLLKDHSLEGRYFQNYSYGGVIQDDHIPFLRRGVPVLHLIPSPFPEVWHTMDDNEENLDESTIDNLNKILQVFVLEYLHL
T2 sequence (Q9NXS2 whole entry): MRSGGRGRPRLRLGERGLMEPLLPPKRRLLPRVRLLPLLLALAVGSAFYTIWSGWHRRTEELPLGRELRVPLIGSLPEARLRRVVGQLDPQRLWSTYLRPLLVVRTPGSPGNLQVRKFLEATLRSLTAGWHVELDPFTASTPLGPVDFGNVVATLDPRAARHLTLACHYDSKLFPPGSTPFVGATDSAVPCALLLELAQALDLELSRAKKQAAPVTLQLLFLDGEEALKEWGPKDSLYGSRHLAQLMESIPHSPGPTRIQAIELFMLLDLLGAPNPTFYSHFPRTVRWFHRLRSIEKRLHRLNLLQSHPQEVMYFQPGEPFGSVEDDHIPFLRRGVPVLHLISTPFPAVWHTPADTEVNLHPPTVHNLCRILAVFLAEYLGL

Broadly, the IC50 is the concentration at which inhibition is half-maximal. For orientation: efflux ratio means the permeability from basolateral to apical divided by that in the opposite direction, in the common usage. As a reminder, the Papp A→B is how fast a substance crosses the layer from the apical side. Low readings indicate poor permeation, high ones ready permeation. Turning to `COCCOc1ncc(-c2nccc(C#N)c2N2CCC(F)(c3nncn3C)CC2)cn1` [Example 10], the IC50 in data set [1] worked out at 283 nM; at QPCT, 30 nM; in data set [3], 536 nM; at QPCTL, 8 nM. Further, the efflux ratio in data set [2] came out at 13.1. Further, the Papp A→B in data set [2] was determined as 1.6 ×10⁻⁶ cm/s.

On to `COc1cnc(-c2ccc(F)nc2)c(N2CCC(F)(c3nncn3C)CC2)c1C#N` [Example 7], for which the IC50 was found to be 200 nM in data set [1], 12 nM at QPCT, 568 nM in data set [3] and 8 nM on QPCTL. In data set [2], the efflux ratio amounted to 5.5. In data set [2], this compound showed a Papp A→B of 15 ×10⁻⁶ cm/s.

Turning to `Cn1c(N)nnc1C1CCN(c2ncccc2-c2ccc(F)nc2)CC1` [Prior art Compound 6, reference compound], the concentration for half-maximal inhibition (IC50) in data set [1] was found to be 12 nM; at QPCT, 1 nM; in data set [3] it was 8 nM; at QPCTL, 1 nM. In addition, the efflux ratio in data set [2] amounted to 65. The compound also gave an apical-to-basolateral permeability (Papp A→B) in data set [2] of 0.2 ×10⁻⁶ cm/s.

As for `Cn1cnnc1C1(F)CCN(c2c(C#N)cc(C(C)(C)O)nc2-c2ccc(F)nc2)CC1` [Example 1], the IC50 in data set [1] was determined as 41 nM; on QPCT it was 3 nM; in data set [3], 77 nM; at QPCTL it was 2 nM. The efflux ratio in data set [2] turned out to be 6.3. In data set [2], this compound showed a Papp A→B of 8.7 ×10⁻⁶ cm/s.

In the case of `Cn1cnnc1C1(F)CCN(c2c(C#N)ccnc2-c2cncc(-c3ncco3)c2)CC1` [Example 11], the IC50 in data set [1] worked out at 419 nM; on QPCT, 48 nM; in data set [3], 1170 nM; at QPCTL, 13 nM. Also, the efflux ratio in data set [2] is 5. Moreover, the Papp A→B in data set [2] was 13 ×10⁻⁶ cm/s.

With `Cn1cnnc1C1(F)CCN(c2c(C#N)ccnc2-c2cnc3nnn(Cc4ccc(C(F)(F)F)nc4)c3c2)CC1` [Example 14], the IC50 worked out at 202 nM in data set [1], 11 nM at QPCT, 673 nM in data set [3] and 3 nM on QPCTL. Moreover, the efflux ratio in data set [2] turned out to be 32.8. In data set [2], this compound yielded a Papp A→B of 0.7 ×10⁻⁶ cm/s.

For `Cn1cnnc1C1(F)CCN(c2c(C#N)ccnc2-c2cnc3nn(Cc4ccc(C(F)(F)F)nc4)nc3c2)CC1` [Example 13], the IC50 in data set [1] is 358 nM; at QPCT, 24 nM; in data set [3] it was 596 nM; on QPCTL, 8 nM. In addition, in data set [2], the efflux ratio is 9. The same compound displayed an apical-to-basolateral permeability (Papp A→B) in data set [2] of 6.2 ×10⁻⁶ cm/s.

Turning to `Cn1cnnc1C1(F)CCN(c2c(C#N)ccnc2-c2cnn3nc(-c4ccc(Cl)cc4)ccc23)CC1` [Example 27], the IC50 in data set [1] was found to be 52 nM; on QPCT, 3 nM; in data set [3] it was 106 nM; on QPCTL, 4 nM. In data set [2], the efflux ratio was found to be 2.2. In data set [2], this compound yielded a Papp A→B of 16 ×10⁻⁶ cm/s.

For the origin of these results see patent US20250059165A1, “PIPERIDINYLPYRIDINYLCARBONITRILE DERIVATIVES AS INHIBITORS OF GLUTAMINYL-PEPTIDE CYCLOTRANSFERASE AND GLUTAMINYL-PEPTIDE CYCLOTRANSFERASE LIKE PROTEIN” (Boehringer Ingelheim International GmbH, priority 2023, published 2025).
